This is an account of results in PMC10526209, “Systematic Exploration of Functional Group Relevance for Anti-Leishmanial Activity of Anisomycin” (Biomedicines, 2023).

In experiment [1] the test system is extract of E. coli (S30). In words: Cell-free transcription-translation inhibition in E. coli S30 extract. The format is biochemical. As to conditions: for IC50: inhibition of translation in active cell lysate, luciferase reporter, 60 min at 37 °C. The procedure: (§1) Cytosolic ribosome susceptibility and selectivity were assessed through three different cell-free transcription-translation assays: (1) An extract of E. coli (S30, Promega, Madison, WI, USA), (2) in rabbit reticulocytes (Promega), and (3) in L. tarentolae lysate (Jena Bioscience, Jena, Germany). Three plasmids, compatible with each extract system, were used in this study: pBESTlucTM (Promega) for the prokaryotic translation assay, Luciferase T7 DNA (Promega) for the reticulocytes, and pLEXSY-invitro2-EGFP (Jena Bioscience) for Leishmania. Firefly luciferase was used as a reporter gene for the bacterial and reticulocyte systems, and EGFP for Leishmania. […] Assays were performed in white polystyrene 96-well flat-bottom plates (Nunc, Roskilde, Denmark) for luciferase and black polystyrene 384-well flat-bottom plates (Greiner, Kremsmunster, Austria) for EGFP. Incubation times were 60 min at 37 °C, 90 min at 30 °C, and 120 min at 26 °C for the bacterial, reticulocyte, and Leishmania systems, respectively. Reactions were stopped by quick snap cooling followed by a 5 min incubation on ice. Luciferase activity was measured for each well following the addition of 50 μL of Luciferase Assay reagent (Promega, Madison, WI, USA) with an automatic reagent injector (Tecan, Mannedorf, Switzerland) by recording the chemical-luminescence signal. EGFP fluorescence (λex = 488 nm; λem = 507 nm) was recorded on a Tecan Infinite R®F200 microplate reader (Tecan). Extracts lacking the circular DNA template were used as a negative control to calculate the fluorescence/chemical luminescence background. Reaction mixtures without compounds were used as positive controls and were regarded as 100% translation. Paromomycin was used as a control reagent in all assays. At least six different concentrations were used to plot each translation inhibition curve; experiments were performed in three independent repeats in duplicate. Half maximal inhibition concentrations (IC50) values were calculated from the concentration-response fitting curves using GraFit7.0.3 software.
On the technique in general: In a reporter assay the amount or activity of a reporter protein is the signal.

In experiment [2] the test system is rabbit reticulocytes (RR). Kind of experiment: Cell-free transcription-translation inhibition in rabbit reticulocytes. The class given is biochemical. The following applies: inhibition of translation in rabbit reticulocyte lysate, luciferase reporter, 90 min at 30 °C. The procedure: as §1
Experiment [3] concerns L. tarentolae lysate. Kind of experiment: Cell-free transcription-translation inhibition in L. tarentolae lysate. The format is biochemical. The following applies: for IC50: inhibition of translation in active cell lysate, EGFP reporter, 120 min at 26 °C. The procedure: as §1
Experiment [4] has as its system Leishmania infantum (MHOM/MA/67/ITMAP-263) wild-type strain. In words: Anti-leishmanial activity on promastigotes, L. infantum WT. The class given is cell-based. The following applies: 72 h, 25 °C, read-out: IC50 (μM) Ldi WT. The procedure:
(§2) The L. infantum (MHOM/MA/67/ITMAP-263) wild-type strain (WT), as well as the resistant mutants Sb2000.1, AmB1000.1, and MF200.5 [29, 30, 31, 32, 33], which are respectively resistant to antimony (Sb^III), amphotericin B (AmB), and miltefosine (MF), were grown in M199 medium at 25 °C supplemented with 10% fetal bovine serum, 5 μg/mL of haemin at pH 7.0, 2000 μM Sb (Potassium antimonyl tartrate trihydrate, Sigma-Aldrich, Saint Louis, MO, USA), 200 μM of MF (Miltefosine, Cayman Chem, Ann Arbor, MI, USA) or 1 μM AmB (Amphotericin B solution, Sigma-Aldrich, Saint Louis, MO, USA). Leishmanicidal values were determined in Leishmania promastigotes by monitoring the replication of parasites after 72 h of incubation at 25 °C in the presence of increasing concentrations of the different compounds by measuring A600 using a Cytation 5 machine (BioTek-Agilent, Santa Clara, CA 9, USA). EC50 values were calculated based on dose–response curves analyzed by non-linear regression with GraphPad Prism 10.0 software (GraphPad Software, La Jolla, CA, USA). An average of at least three independent biological replicates were performed for each determination.

Experiment [5] deals with Leishmania infantum (MHOM/MA/67/ITMAP-263) resistant to 1 µM amphotericin B. In words: Anti-leishmanial activity on promastigotes, amphotericin B-resistant L. infantum. The class given is cell-based. The following applies: 72 h, read-out: IC50 (μM) Ldi AmB-Res. The procedure: as §2
The test system of experiment [6] is Leishmania infantum (MHOM/MA/67/ITMAP-263) resistant to 2 mM trivalent (and pentavalent) antimonials. Kind of experiment: Anti-leishmanial activity on promastigotes, antimony-resistant L. infantum. The format is cell-based. As to conditions: 72 h, read-out: IC50 (μM) Ldi Sb-Res. On the procedure: as §2
Experiment [7] relates to Leishmania infantum (MHOM/MA/67/ITMAP-263) resistant to 200 µM miltefosine. In words: Anti-leishmanial activity on promastigotes, miltefosine-resistant L. infantum. The class given is cell-based. As to conditions: 72 h, read-out: IC50 (μM) Ldi MF-Res. The procedure: as §2
In experiment [8] the test system is Leishmania major Friedlin. Kind of experiment: Anti-leishmanial activity on promastigotes, L. major Friedlin. The following applies: 72 h, 25 °C, read-out: IC50 (μM) LmF WT. The format is cell-based.

The IC50 is the concentration at which inhibition is half-maximal.

Counter-ions that a name gives are not always drawn. Like-named read-outs stand apart in the source and are kept apart here. Some results are limits rather than exact numbers.

Regarding `CC(=O)O[C@@H]1[C@@H](O)CN[C@@H]1Cc1ccc(OCc2ccccc2)cc1` [Analog 22c, (2R,3S,4S)-4-hydroxy-2-(4-benzyloxybenzyl)-pyrrolidin-3-yl acetate], the results for the IC50 in experiment [1], in experiment [2] and in experiment [3] were above 200 µM, 0.9 ± 0.2 µM and 7.96 ± 1.02 µM, respectively.

As for “Potassium antimonyl tartrate trihydrate [reference compound]”, the IC50 is 75.8 ± 6.13 µM in experiment [4]; 90.2 ± 8.3 µM in experiment [5] (promastigotes, 25 °C); above 2000 µM in experiment [6] (promastigotes, 25 °C); 85.3 ± 7.1 µM in experiment [7] (promastigotes, 25 °C); 25 ± 1.13 µM in experiment [8].

For `COc1ccc(C[C@H]2NC[C@H](O)[C@H]2OC(C)=O)cc1` [Analog 1, Anisomycin], the IC50 in experiment [1] is above 500 µM; in experiment [2], 0.1 ± 0.02 µM; in experiment [3], 0.55 ± 0.03 µM. Besides, the “effect on E. coli (in words)” value in experiment [1] (translation assay) is given as “no effect”.

On to `CC(=O)O[C@@H]1[C@@H](O)CN[C@@H]1Cc1cc(CN(C)C)c(O)c(CN(C)C)c1` [Analog 19, (2R,3S,4S)-4-hydroxy-2-[3,5-di-(dimethylaminomethyl)-4-hydroxybenzyl]-pyrrolidin-3-yl acetate], for which the IC50 in experiment [1] was above 200 µM; in experiment [2], 70.7 ± 7.3 µM; in experiment [3] it was above 1000 µM. The “activity against L. tarentolae translation / anti-protozoan activity (in words)” value in experiment [3] was “abolished anti-protozoan activity”.

As for `COc1ccc(C[C@H]2NC[C@H](OC)[C@H]2OC)cc1` [Analog 10, (2R,3S,4S)-3,4-dimethoxy-2-(4-methoxybenzyl)-pyrrolidine hydrochloride], the half-inhibitory concentration (IC50) in experiment [1], in experiment [2] and in experiment [3] was above 1000 µM throughout.

On to `CCCCCCCCOc1ccc(C[C@H]2NC[C@H](O)[C@H]2OC(C)=O)cc1` [Analog 22b, (2R,3S,4S)-4-hydroxy-2-(4-octyloxybenzyl)-pyrrolidin-3-yl acetate], for which the IC50 is above 200 µM in experiment [1]; 9.5 ± 3.5 µM in experiment [2]; 1.11 ± 0.03 µM in experiment [4] (Leishmania infantum); 1.78 ± 0.58 µM in experiment [5] (Leishmania infantum); 33.5 ± 8.2 µM in experiment [3]; 1.75 ± 0.08 µM in experiment [6] (Leishmania infantum). Also, the figures for the IC50 in experiment [7] (Leishmania infantum) and in experiment [8] (Leishmania major) were 1.83 ± 0.06 µM and 1.75 ± 0.12 µM, respectively.

For the molecule `COc1ccc(C[C@H]2NC[C@H](O)[C@H]2OC)cc1` [Analog 11, (2R,3S,4S)-3-methoxy-4-hydroxy-2-(4-methoxybenzyl)-pyrrolidine hydrochloride], the values for the IC50 in experiment [1], in experiment [2] and in experiment [3] were above 1000 µM, 70.9 ± 8.3 µM and 24 ± 2.5 µM, respectively.

In the case of `COc1ccc(C[C@H]2NC[C@H](O)[C@H]2OC(C)=O)cc1I` [Analog 16, (2R,3S,4S)-4-hydroxy-2-(3-iodo-4-methoxybenzyl)-pyrrolidin-3-yl acetate], the IC50 in experiment [1] was above 1000 µM; in experiment [2], 73.7 ± 1.7 µM; in experiment [3], above 1000 µM. Further, the “activity against L. tarentolae translation / anti-protozoan activity (in words)” value in experiment [3] is “abolished anti-protozoan activity”.

Turning to `CCCCCCCCCCCCCCCCOP(=O)([O-])OCC[N+](C)(C)C` [Miltefosine, reference compound], the IC50 in experiment [4] (Leishmania infantum) is 7.16 ± 0.21 µM; in experiment [5] (Leishmania infantum) it was 30.3 ± 4.28 µM; in experiment [6] (Leishmania infantum), 8.21 ± 0.53 µM; in experiment [7] (Leishmania infantum), above 200 µM; in experiment [8] (Leishmania major), 8.47 ± 1.18 µM.

On to `NC[C@@H]1O[C@H](O[C@H]2[C@@H](O)[C@H](O[C@@H]3[C@@H](O)[C@H](N)C[C@H](N)[C@H]3O[C@H]3O[C@H](CO)[C@@H](O)[C@H](O)[C@H]3N)O[C@@H]2CO)[C@H](N)[C@@H](O)[C@@H]1O` [Paromomycin, reference compound], for which the values for the IC50 in experiment [1], in experiment [2] and in experiment [3] were 0.051 ± 0.005 µM, 21 ± 1.1 µM and 3.62 ± 0.09 µM, respectively.

Take `CC(=O)O[C@@H]1[C@@H](O)CN[C@@H]1Cc1cc(CN2CCOCC2)c(O)c(CN2CCOCC2)c1` [Analog 20, (2R,3S,4S)-4-hydroxy-2-[3,5-di-(morpholinomethyl)-4-hydroxybenzyl]-pyrrolidin-3-yl acetate]: the IC50 in experiment [1], in experiment [2] and in experiment [3] was above 1000 µM in each case. In addition, the “activity against L. tarentolae translation / anti-protozoan activity (in words)” value in experiment [3] is given as “abolished anti-protozoan activity”.

As to `CC(=O)O[C@@H]1[C@@H](O)CN[C@@H]1Cc1ccc(O)cc1` [Analog 17, (2R,3S,4S)-4-hydroxy-2-(4-hydroxybenzyl)-pyrrolidin-3-yl acetate], the IC50 in experiment [1] was above 200 µM; in experiment [2], 6.2 ± 0.45 µM; in experiment [3], 53.7 ± 6.1 µM.

With `COc1ccc(C[C@H]2NC[C@H](OC(C)=O)[C@H]2OC(C)=O)cc1` [Analog 9, (2R,3S,4S)-3,4-diacetoxy-2-(4-methoxybenzyl)-pyrrolidine hydrochloride], the IC50 is above 1000 µM in experiment [1], 25.7 ± 8.5 µM in experiment [2] and above 100 µM in experiment [3].

As for `COc1ccc(C[C@H]2NC[C@H](O)[C@H]2O)cc1` [Analog 2, (2R,3S,4S)-3,4-dihydroxy-2-(4-methoxybenzyl)-pyrrolidine], the IC50 was above 1000 µM in experiment [1], above 1000 µM in experiment [2] and above 100 µM in experiment [3].

Regarding `COc1ccc(C[C@@H]2[C@H](OC(C)=O)[C@@H](O)CN2C)cc1` [Analog 8, (2R,3S,4S)-1-methyl-4-hydroxy-2-(4-methoxybenzyl)-pyrrolidin-3-yl acetate], the IC50 in experiment [1] was above 1000 µM; in experiment [2], 25.5 ± 3.6 µM; in experiment [3], above 100 µM.

Regarding `CC(=O)O[C@@H]1[C@@H](O)CN[C@@H]1Cc1ccc(OCC(=O)O)cc1` [Analog 22d, (2R,3S,4S)-4-hydroxy-2-(4-carboxymethyloxybenzyl)-pyrrolidin-3-yl acetate], the IC50 in experiment [4] (Leishmania infantum) amounted to 14.9 ± 2.18 µM; in experiment [5] (Leishmania infantum), 19.2 ± 1.24 µM; in experiment [6] (Leishmania infantum) it was 16 ± 1.03 µM; in experiment [7] (Leishmania infantum), 18.2 ± 2.33 µM; in experiment [8] (Leishmania major), 16.6 ± 2.23 µM.
